# Assay results taken from patent publication US20180037909A1, “MODIFIED CANCER CELL LINES AND USES THEREOF” (Chang Gung Memorial Hospital, Linkou, priority 2016, published 2018).
# Assays:
# ST3Gal1 mRNA = ST3Gal1 mRNA expression by qPCR, normalized to GAPDH mRNA; type: cell-based; details: MDA-MB-231 breast cancer cells; for expression of ST3Gal1 RNA compared to sc RNA, siRNA-A or pVoid transfected cells: FIG. 8A-8C
# Procedure: MDA-MB-231 breast cancer cells (available from Bioresource Collection and Research Center, Taiwan) were transfected with scramble siRNA (sc) or ST3Gal1 (si) siRNA with an antisense strand (SEQ ID NO:2) and a sense strand (SEQ ID NO:3). The expression levels of the ST3Gal1 mRNA were analyzed by qPCR analysis and normalized to GAPDH mRNA levels.
# MDA-MB-231 breast cancer cells were transfected with scramble siRNA (sc), a vector without shRNA (pVoid), shRNA1-3 (SEQ ID NO:11), shRNA 1-4 (SEQ ID NO:12), or the siRNA listed in Table 1 below:
# The expression levels of the ST3Gal1 mRNA were analyzed by qPCR analysis and normalized to GAPDH mRNA levels.
# MCF7 breast cancer cells = test: Cell growth monitored by xCELLigence System; type: cell-based; details: FIG. 9
# Procedure: An in vitro evaluation of the effect of ST3Gal1 siRNA (to knock down ST3Gal1 expression) and anti-cancer agent was performed using breast cancer cells.
# MCF7 breast cancer cells were treated with one of the regimes in Table 2 and cell growth was monistored by xCELLigence System (ACEA Biosciences, Inc., USA)
# [1] = system: mCRPs (CD46, CD55, and CD59) and target antigens (HLA and SSEA4); test: FACS expression of membrane complement regulatory proteins and target antigens; type: cell-based; details: MDA-MB-231, four days after transfection
# From the text: (§1) MDA-MB-231 breast cancer cells were transfected with scramble RNA (sc) or ST3Gal1 siRNA (si) according to Example 1. After four days, cells were collected and analyzed for the expression of membrane complement regulatory proteins (mCRPs) and target antigen by fluorescence-activated cell sorting (FACS). There was no change in the expression levels of mCRPs (CD46, CD55, and CD59) and target antigens (HLA and SSEA4) with ST3Gal1 silencing.
# MDA-MB-231 cells = test: ADCC assay with human PBMC effectors and anti-SSEA4 antibody; type: cell-based; details: anti-SSEA4 antibody, Effector:Target ratio 10:1
# Procedure: as §1
# ADCC assay was performed using human PBMC cells as effectors, anti-SSEA4 as antibody, and ST3Gal1siRNA transfected MDA-MB-231 cells as targets. […] The mean percentages of lysis are 24.2±1.7% and 41.5±2.4% for sc and si, respectively at Effector:Target ratio of 10:1 ratio (E/T10), and the difference is statistically significant.
# CD55 [2] = test: LC-MS/MS analysis of released, permethylated O-glycans of CD55; details: ST3Gal1 silenced vs sc transfected breast cancer cells
# From the text: The bi- and tri-antennary structures were all detected as glycoforms of the expected tryptic peptide […], previously reported as the single N-linked glycosylation site. […] The sialylation of core 1 and core 2 O-glycan on CD55 regulates the activity of CD55.
# Impairment of 2-3-sialylation of the O-glycans of the CD55 molecule increases non-sialylated core 1 and monosialylated core 2, at the expenses of disialylated core 2 structure. On the other hand, the relative amount of the monosialylated core 1 O-glycan of the CD55 molecule (m/z 895.462) was similar in ST3Gal1 silenced and sc transfected breast cancer cells, probably due to compensation of 2-6-sialylation.
# [3] = system: C3 deposit on breast cancer cells; test: C3 deposition on cancer cell surface by flow cytometry with anti-C3 antibody; type: cell-based; details: human serum, non-lytic conditions
# Procedure: An in vitro evaluation was performed to assess the decay-accelerating ability of ST3Gal1 silenced breast cancer cells with de-sialylated CD55, by measuring the deposition of C3 fragments on the cancer cell surface.
# Breast cancer cells were incubated under non-lytic conditions with human serum and deposited C3 were detected by flow cytometric analysis using anti-C3 antibody. […] There is minimal C3 deposit in both scramble RNA (sc) and ST3Gal1 siRNA (si) transfected breast cancer cells in the absence of anti-HLA antibody (geometric mean fluorescence: sc, 31.5±0.2×10^3; si, 35.2±0.6×10^3).
# [4] = system: Prostate cancer cells (PC3); test: AlamarBlue cell proliferation assay; type: cell-based; details: fluorescence 590 nm, FIG. 7A
# Procedure: (§2) Prostate cancer cells (PC3, Bioresource Collection and Research Center, Taiwan) and neuroblastoma cells (SH-SY5Y, obtained from Professor Yi-Cheng Chen, Mackay Medical College, Taiwan) were transfected with a scramble RNA (sc) or ST3Gal1 siRNA (si) according to Example 1. The cell proliferation was determined by AlamarBlue assay using Victor X3 plate reader to measure the fluorescence (590 nm) that was used to present the level of cell proliferation.
# [5] = system: neuroblastoma cells (SH-SY5Y); test: AlamarBlue cell proliferation assay; type: cell-based; details: fluorescence 590 nm, FIG. 7B
# Procedure: as §2
# CD55 [6] = test: PNA lectin blot / PNA precipitation of cell lysates with mass spectrometry and CD55 blot; type: cell-based; details: breast cancer cells
# Procedure: To examine the protein target of ST3Gal1 in breast cancer cells, total cell lysates from scramble or ST3Gal1 siRNA treated breast cancer cells were prepared for PNA lectin blot analysis after precipitation with agarose bound PNA. ST3Gal1 catalyzes the sialylation of galactosyl (β-1, 3) N-acetylgalactosamine, by adding sialic acid to Core 1 O-glycans. Since Peanut agglutinin (PNA) binds preferentially to Core 1 O-glycans (without the added sialic acid), ST3Gal1 knock down is expected to increase PNA binding to Core 1 O-glycans.
# As expected, PNA-binding signals in breast cancer cells increased at about 72, 130 and 250 kDa molecular weight, after ST3Gal1 knock down (FIG. 1B). Using in-gel digestion and LTQ-FTD MASS spectrometry, CD55 was identified as one of the PNA-binding proteins with increased signal (by 2.6 folds) after ST3Gal1 knock down and the molecular weight of CD55 is slightly lower in ST3Gal1 silenced cells (FIG. 1C). However, the total CD55 protein levels remained similar (sc vs. si: 1.0 vs. 1.1) (FIG. 1D).
# CD46 and CD59 = test: Western blot of CDC regulatory proteins; type: cell-based; details: breast cancer cells; FIG. 2B
# From the text: In addition, the expression levels of CD46 or CD59 were unaffected in breast cancer cells transfected with ST3Gal1 siRNA.
# [7] = biological target: CD55 from MDA-MB-231 breast cancer cells transfected with ST3Gal1 siRNA (UniProt P08174); test: CD55 signal in PNA precipitate of lysate, ST3Gal1 siRNA cells against scramble siRNA cells
# Chain of UniProt P08174 (P08174 35-353 limits assumed): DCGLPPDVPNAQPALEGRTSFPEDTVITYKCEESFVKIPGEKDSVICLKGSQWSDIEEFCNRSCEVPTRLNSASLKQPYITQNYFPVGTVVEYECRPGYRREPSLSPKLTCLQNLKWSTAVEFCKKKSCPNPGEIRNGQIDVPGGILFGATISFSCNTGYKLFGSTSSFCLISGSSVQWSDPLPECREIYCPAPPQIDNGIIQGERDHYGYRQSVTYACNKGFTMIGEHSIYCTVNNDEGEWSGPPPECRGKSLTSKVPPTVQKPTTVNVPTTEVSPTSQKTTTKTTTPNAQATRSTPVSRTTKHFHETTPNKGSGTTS
compound,measurement,setting,value
"siRNA-2: siRNA, antisense UCAUGCUGACAUUAUCUCCCAGCUC (SEQ ID NO: 6), sense GAGCUGGGAGAUAAUGUCAGCAUGA (SEQ ID NO: 7) (listed as RNA, chemistry not given here)","expression of ST3Gal1 RNA compared to sc RNA, siRNA-A or pVoid transfected cells",ST3Gal1 mRNA,reduced
CC/C(=C(\c1ccccc1)c1ccc(OCCN(C)C)cc1)c1ccccc1 [tamoxifen],Cancer cell viability,MCF7 breast cancer cells,76%
"siRNA-3: siRNA, antisense UUGAGAAGAUGACCGAGAGGAUGCC (SEQ ID NO: 8), sense GGCAUCCUCUCGGUCAUCUUCUCAA (SEQ ID NO: 9) (listed as RNA, chemistry not given here)","expression of ST3Gal1 RNA compared to sc RNA, siRNA-A or pVoid transfected cells",ST3Gal1 mRNA,reduced
shRNA1-4: shRNA 1-4 (SEQ ID NO:12) (CCGGGCGGGAGAAGAAGCCCAATAACTCGAGTTATTGGGCTTCTTCTCCCGCTTTTTG),"expression of ST3Gal1 RNA compared to sc RNA, siRNA-A or pVoid transfected cells",ST3Gal1 mRNA,reduced
"siRNA-1: siRNA, antisense AUCUCAGGCCCAUAAGAAGACUCCC (SEQ ID NO: 4), sense GGGAGUCUUCUUAUGGGCCUGAGAU (SEQ ID NO: 5) (listed as RNA, chemistry not given here)","expression of ST3Gal1 RNA compared to sc RNA, siRNA-A or pVoid transfected cells",ST3Gal1 mRNA,reduced
"ST3Gal1 siRNA: ST3Gal1 siRNA with an antisense strand (SEQ ID NO:2) and a sense strand (SEQ ID NO:3) (sense CCGGUUCCUGCAAAGAUCAGAGUGA; antisense UCACUCUGAUCUUUGCAGGAACCGG; listed as RNA, chemistry not given here)","expression levels of mCRPs (CD46, CD55, CD59) and target antigens (HLA, SSEA4)",[1],no change
same,mean percentage of lysis (ADCC),MDA-MB-231 cells,41.5±2.4%
same,Cancer cell viability,MCF7 breast cancer cells,65%
same,relative amount of monosialylated core 1 O-glycan of CD55 (m/z 895.462),CD55 [2],similar
same,relative amount of disialylated core 2 structure at m/z 864.426 (2+) on CD55,CD55 [2]; FIG. 6B,significantly reduced
same,relative amount of monosialylated core 2 structure at m/z 683.839 (2+) on CD55,CD55 [2]; FIG. 6B,increased
same,"C3 deposit, geometric mean fluorescence",[3]; 10 μg/ml anti-HLA antibody,89.5±5.5×10^3
same,"C3 deposit, geometric mean fluorescence",[3]; 25 μg/ml anti-HLA antibody,164.8±0.8×10^3
same,"C3 deposit, geometric mean fluorescence",[3]; absence of anti-HLA antibody,35.2±0.6×10^3
same,proliferation of prostate cancer cells compared to sc RNA,[4],significantly reduced
same,proliferation of neuroblastoma cells compared to sc RNA,[5],significantly reduced
same,increase of CD55 PNA-binding signal after ST3Gal1 knock down,CD55 [6]; FIG. 1C,2.6 folds
same,total CD55 protein levels (sc = 1.0),CD55 [6]; FIG. 1D,1.1
same,expression levels of CD46 or CD59,CD46 and CD59,unaffected
same,"expression of ST3Gal1 RNA, % of that of sc transfected breast cancer cells",ST3Gal1 mRNA; normalized to GAPDH mRNA,28.5±8.2%
shRNA1-3: shRNA1-3 (SEQ ID NO:11) (CCGGGCTGGGAGATAATGTCAGCATCTCGAGATGCTGACATTATCTCCCAGCTTTTTG),"expression of ST3Gal1 RNA compared to sc RNA, siRNA-A or pVoid transfected cells",ST3Gal1 mRNA,reduced
Peanut agglutinin (PNA) (from UniProt P02872 24-259),fold increase of signal after ST3Gal1 knock down (against scramble siRNA cells),[7],2.6 fold
COc1cc2c(Nc3ccc(Br)cc3F)ncnc2cc1OCC1CCN(C)CC1 [vandetanib],Cancer cell viability,MCF7 breast cancer cells,37.5%
